Assay results taken from paper PMC11671014 (PLOS Pathogens, 2024).
Entries after “also recorded” stand apart in the source; their conditions may differ.

Experiments:
[1] = test system: P. falciparum (3D7, ring stage) cultures; experiment: P. falciparum 3D7 72-h growth inhibition, lactate dehydrogenase (PfLDH) assay; assay type: cell-based; settings: Plasmodium falciparum, 72 h exposure
Description: Routine analyses of antimalarial activity against P. falciparum 3D7 was tested by TCGLS (Kolkata, India) using the lactate dehydrogenase (PfLDH) growth inhibition assay as previously described. […] P. falciparum strain (3D7) was obtained from BEI Resources.

[2] = molecular target: T1, UAE (ubiquitin activating enzyme) (Homo sapiens, UniProt P22314); experiment: UAE E1-E2 transthiolation HTRF assay; assay type: biochemical
T1 sequence (P22314 1-1058): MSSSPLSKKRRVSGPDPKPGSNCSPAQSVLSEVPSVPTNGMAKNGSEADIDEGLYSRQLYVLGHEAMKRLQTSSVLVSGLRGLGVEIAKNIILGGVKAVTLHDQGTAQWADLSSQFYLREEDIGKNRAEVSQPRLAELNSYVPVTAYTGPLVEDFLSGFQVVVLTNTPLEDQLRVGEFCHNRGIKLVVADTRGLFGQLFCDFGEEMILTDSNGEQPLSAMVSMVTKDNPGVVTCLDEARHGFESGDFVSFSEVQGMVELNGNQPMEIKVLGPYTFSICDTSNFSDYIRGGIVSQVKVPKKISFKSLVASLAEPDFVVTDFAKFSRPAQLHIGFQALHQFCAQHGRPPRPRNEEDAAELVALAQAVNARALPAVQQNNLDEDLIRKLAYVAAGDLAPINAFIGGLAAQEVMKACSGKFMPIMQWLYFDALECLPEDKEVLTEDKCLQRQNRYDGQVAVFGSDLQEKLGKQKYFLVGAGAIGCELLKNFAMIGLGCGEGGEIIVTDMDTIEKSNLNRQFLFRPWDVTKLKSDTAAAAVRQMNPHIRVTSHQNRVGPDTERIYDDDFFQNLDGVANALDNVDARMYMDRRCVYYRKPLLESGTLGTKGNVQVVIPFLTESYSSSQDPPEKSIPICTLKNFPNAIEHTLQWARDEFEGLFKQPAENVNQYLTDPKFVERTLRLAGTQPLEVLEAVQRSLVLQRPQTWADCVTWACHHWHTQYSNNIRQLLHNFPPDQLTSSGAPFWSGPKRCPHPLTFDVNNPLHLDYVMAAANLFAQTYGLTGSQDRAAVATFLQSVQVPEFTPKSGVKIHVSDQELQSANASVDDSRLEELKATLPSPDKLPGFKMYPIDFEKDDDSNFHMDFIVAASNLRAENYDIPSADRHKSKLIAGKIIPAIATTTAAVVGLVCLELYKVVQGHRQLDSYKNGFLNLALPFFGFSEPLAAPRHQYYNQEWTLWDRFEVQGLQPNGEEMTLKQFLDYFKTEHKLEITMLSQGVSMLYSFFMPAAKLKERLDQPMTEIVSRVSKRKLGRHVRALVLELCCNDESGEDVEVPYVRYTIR
Text: (§1) An Homogeneous Time-Resolved Fluorescence (HTRF) enzyme assay was employed to evaluate compound activity against ATG7 as previously described. In this assay, a Flag-tagged ATG8 homolog (GABA type A receptor-associated protein; GABARAP) is activated by ATG7 and then transthiolated to a GST-tagged E2 (ATG3). The product of the enzyme reaction, Flag-GABARAP-ATG3-GST, is quantified by measuring FRET between Europium-Cryptate labelled monoclonal anti-Flag M2 (FLAG M2-Eu cryptate; Revvity, Cat# 61FG2KLB) and […] (Anti-GST IgG conjugated to SureLight-Allophycocyanin) (Revvity, Cat# AD0059G)). The activation and transthiolation of ubiquitin by UAE, activation and transthiolation of NEDD8 by NAE and activation and transthiolation of SUMO by SAE were all assayed in a similar fashion with appropriately tagged ubiquitin-like proteins and E2 conjugating enzymes as described.

[3] = molecular target: T2, SAE (SUMO-activating enzyme) (Homo sapiens, UniProt Q9UBT2); experiment: SAE E1-E2 transthiolation HTRF assay; assay type: biochemical
T2 sequence (Q9UBT2 1-640): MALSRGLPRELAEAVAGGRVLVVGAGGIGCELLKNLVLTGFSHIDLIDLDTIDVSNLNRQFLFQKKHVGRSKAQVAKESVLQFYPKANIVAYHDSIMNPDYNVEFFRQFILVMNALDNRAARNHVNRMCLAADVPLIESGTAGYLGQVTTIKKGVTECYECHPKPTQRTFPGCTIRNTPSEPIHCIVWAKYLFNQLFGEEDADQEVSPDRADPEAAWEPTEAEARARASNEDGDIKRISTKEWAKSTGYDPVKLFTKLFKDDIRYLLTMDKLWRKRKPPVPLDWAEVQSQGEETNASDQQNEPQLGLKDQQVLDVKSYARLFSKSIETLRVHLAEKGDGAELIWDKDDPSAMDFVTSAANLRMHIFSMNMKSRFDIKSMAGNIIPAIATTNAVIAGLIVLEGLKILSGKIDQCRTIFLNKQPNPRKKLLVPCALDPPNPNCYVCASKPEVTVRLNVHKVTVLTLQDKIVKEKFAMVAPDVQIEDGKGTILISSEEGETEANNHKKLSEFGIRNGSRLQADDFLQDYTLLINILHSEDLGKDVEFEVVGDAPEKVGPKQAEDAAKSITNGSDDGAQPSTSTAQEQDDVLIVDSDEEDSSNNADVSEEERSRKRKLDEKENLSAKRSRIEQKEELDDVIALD
T2 sequence (Q9UBE0 1-346 partner): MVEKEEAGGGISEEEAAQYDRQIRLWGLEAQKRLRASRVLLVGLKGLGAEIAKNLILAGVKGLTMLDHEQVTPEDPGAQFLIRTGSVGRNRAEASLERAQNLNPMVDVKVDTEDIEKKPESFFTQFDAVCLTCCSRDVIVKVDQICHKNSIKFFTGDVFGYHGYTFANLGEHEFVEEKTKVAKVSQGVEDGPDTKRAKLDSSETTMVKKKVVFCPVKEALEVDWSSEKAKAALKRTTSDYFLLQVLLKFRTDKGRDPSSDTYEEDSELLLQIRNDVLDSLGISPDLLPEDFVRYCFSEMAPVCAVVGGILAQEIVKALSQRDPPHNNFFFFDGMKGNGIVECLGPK
Text: as §1

PfTyrRS = PfTyrRS (Plasmodium falciparum, UniProt Q8IAR7); experiment: Differential scanning fluorimetry (DSF) of PfTyrRS; assay type: binding; settings: for ΔTm at 50 µM: 50 μM sulfamate, tyrosine, PftRNA^Tyr, 37°C 2 h, read-out: PfTyrRS binding (DSF) Delta Tm; for ΔTm at 50 µM / PfTyrRS Tm: ATP; for Kd: estimated from DSF with an irreversible thermal unfolding model, read-out: PfTyrRS binding (DSF) apparent KD; for PfTyrRS Tm: with sulfamate, tyrosine and tRNA, apo 49.9 ± 0.6
Description: The effect on ML471 and analogues on the thermal stability of TyrRS enzymes was assayed as previously described. […] SYPRO Orange (Sigma-Aldrich; 5,000X concentrate in DMSO) was added to the reaction mixture at a final concentration of 5X. 25 μL of the sample was added into each well of a 96-well qPCR plate (Applied Biosystems). The plate was sealed and analysed using StepOnePlus Real-Time PCR system (Applied Biosystems). The samples were heated from 20°C to 90°C with a 1% continuous gradient. The thermal unfolding curve was plotted as the first derivative curve of the raw fluorescence values. The melting temperature (Tm), defined as the peak of the first derivative curve, was used to assess the thermal stability of protein-ligand complexes.

Sequence of PfTyrRS (Q8IAR7 entry or part of it): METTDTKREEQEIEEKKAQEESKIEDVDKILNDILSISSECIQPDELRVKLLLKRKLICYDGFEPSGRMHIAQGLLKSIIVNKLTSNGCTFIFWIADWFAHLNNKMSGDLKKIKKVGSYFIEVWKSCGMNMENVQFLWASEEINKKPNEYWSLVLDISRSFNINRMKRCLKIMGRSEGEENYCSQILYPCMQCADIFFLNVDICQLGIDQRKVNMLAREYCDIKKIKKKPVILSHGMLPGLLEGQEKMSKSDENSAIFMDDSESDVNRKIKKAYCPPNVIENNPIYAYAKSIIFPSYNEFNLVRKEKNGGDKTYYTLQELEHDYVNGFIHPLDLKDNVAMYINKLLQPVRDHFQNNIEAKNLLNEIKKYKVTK

SMILES | IC50 [1] [nM] | IC50 [2] [nM] | IC50 [3] [nM] | ΔTm at 50 µM (PfTyrRS) [°C] | Kd (PfTyrRS) [nM] | PfTyrRS Tm (PfTyrRS) [°C] | activity against UAE (in words) ([2]; human UAE in vitro) | activity against SAE (in words) [3]
CCOc1nn([C@@H]2O[C@H](COS(N)(=O)=O)[C@@H](O)[C@H]2O)c2ncnc(N)c12 [ML676] | 2.8 ± 0.2 | 73400 ± 3500 | 31400 ± 5700 | 15.69 ± 0.01 | 0.6 | 65.5 ± 0.6 |  | 
Nc1ncnc2c1c(Oc1ccccc1)nn2[C@@H]1O[C@H](COS(N)(=O)=O)[C@@H](O)[C@H]1O [ML470] | 44.8 ± 8.2 | > 100000 | > 100000 | 15.7 ± 0.3 | 0.6 | 65.5 ± 0.6 |  | 
Nc1ncnc2c1c(C(F)(F)F)nn2[C@@H]1O[C@H](COS(N)(=O)=O)[C@@H](O)[C@H]1O [ML107] | 4.2 ± 0.5 | 22900 ± 700 | 78500 ± 6200 | 13.6 ± 0.6 | 1.4 | 63.5 ± 0.4 |  | 
CCc1nn([C@@H]2O[C@H](COS(N)(=O)=O)[C@@H](O)[C@H]2O)c2ncnc(N)c12 [ML681] | 3.4 ± 0.1 | 8700 ± 600 | 22400 ± 3100 | 16.4 ± 0.1 | 0.4 | 66.3 ± 0.5 |  | 
CC(C)Oc1nn([C@@H]2O[C@H](COS(N)(=O)=O)[C@@H](O)[C@H]2O)c2ncnc(N)c12 [ML723] | 2.5 ± 0.6 | > 100000 | > 100000 | 16.2 ± 0.1 | 0.5 | 66.1 ± 0.7 |  | 
CC(C)c1nn([C@@H]2O[C@H](COS(N)(=O)=O)[C@@H](O)[C@H]2O)c2ncnc(N)c12 [ML471, ((2R,3S,4R,5R)-5-(4-amino-3-isopropyl-1H-pyrazolo[3,4-d]pyrimidin-1-yl)-3,4-dihydroxytetrahydrofuran-2-yl)methyl sulfamate] | 1.5 ± 0.2 | 85700 ± 6500 | > 100000 | 18 ± 0.1 | 0.2 | 67.9 ± 0.4 | no inhibitory activity; also recorded: no or very little activity | no or very little activity
Nc1ncnc2c1c(OC(F)F)nn2[C@@H]1O[C@H](COS(N)(=O)=O)[C@@H](O)[C@H]1O [ML901] | 2.8 ± 0.2 | 5390 ± 160 | > 100000 | 15.2 ± 0.1 | 0.7 | 65.1 ± 0.5 |  | no activity
